Measurements reported in patent publication US7723119B2, “Method for determining solubility of a chemical compound” (Sirius Analytical Instruments Ltd., priority 2004, dated 2010).

Experiment: solubility determination by Chasing Equilibrium pH-metric titration
Format: physicochemical
From the text: In the Dissolution stage, the test solution is titrated with base titrant. In the Seeking Precipitation and Additional Precipitation stages, the test solution is titrated with acid titrant.
After the final data point of the Additional Precipitation stage has been collected, the method moves on to the Chasing Equilibrium stage. Chasing Equilibrium for an acidic sample is based on the following principles:
The first points are collected while adding base titrant to a supersaturated test solution. The addition of titrant is controlled by a computer program. The slope decreases with each aliquot of base that is added. […] Another aliquot of base is added to confirm that the slope is negative. If the slope remains negative, another data point is taken after adding no titrant. […] By successively adding aliquots of base and acid, the slope can be forced to change direction. When the slope has changed direction several (e.g. five) times the Chasing Equilibrium stage of the procedure is deemed to be complete.
The concentration of unionised solute in solution is calculated for each point in FIG. 7, and plotted against slope (pH/min) as shown in FIG. 8. The points are then connected by a line in the same order that they appeared in FIG. 7. The points corresponding to where the line crosses the zero value of the slope (pH/min) axis are determined by interpolation. The concentration equivalent to these zero slope, crossing points is determined. The solubility is then obtainable as the mean concentration calculated from the several zero slope, crossing points.
For each point located on either side of a zero slope crossing, the amount of neutral sample in solution could be calculated in the following steps:
1. […]
4. The concentration of free positive ions (e.g. K^+) is determined from the amount of base titrant (e.g. KOH) plus any positive ions in the test compound if it was a salt: [K^+]=(vbcb+mszs+/wf)/vt • wherein: cb is the concentration of base titrant • ms is the sample weight of test compound • zs+ is the charge of any positive salt counter-ions • wf is the formula weight of the test compound. […]

In the case of `O=C(O)Cc1ccccc1Nc1c(Cl)cccc1Cl` [diclofenac], the solubility thermodynamic (0.15 M KCl solution titrated with acid and base, saline or isotonic, thermodynamic from solid, straight line interpolation of points A and B to zero pH slope, 0.15M KCl solution, sample introduced as sodium salt, read-out: equilibrium solubility (concentration of unionised compound at zero pH slope)) is reported as roughly 0.732 µg/mL, the “dissolved neutral test sample” value (point A, one side of zero-slope crossing, pH=5.64453, pH slope=2.87 E-05) is reported as 759 ng/mL and the “dissolved neutral test sample” value (point B, other side of zero-slope crossing, pH=5.70437, pH slope=-3.5 E-06) is reported as 728 ng/mL.
